For one data set, the target named is T1, adrenergic α2c receptors (Homo sapiens, UniProt P18825).
T1 sequence (P18825 1-462): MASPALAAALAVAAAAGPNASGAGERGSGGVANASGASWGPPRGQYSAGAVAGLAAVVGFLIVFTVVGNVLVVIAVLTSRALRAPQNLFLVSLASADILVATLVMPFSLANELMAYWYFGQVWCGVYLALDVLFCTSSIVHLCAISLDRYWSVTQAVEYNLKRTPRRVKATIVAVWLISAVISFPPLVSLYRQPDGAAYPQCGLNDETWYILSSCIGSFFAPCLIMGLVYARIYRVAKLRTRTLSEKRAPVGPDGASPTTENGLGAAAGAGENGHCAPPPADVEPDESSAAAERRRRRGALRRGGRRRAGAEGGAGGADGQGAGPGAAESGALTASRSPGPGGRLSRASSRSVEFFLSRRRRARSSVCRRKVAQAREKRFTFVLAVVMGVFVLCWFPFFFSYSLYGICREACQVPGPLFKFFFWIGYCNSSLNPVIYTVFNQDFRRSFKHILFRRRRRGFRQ
Description: radioligand binding, adrenergic α2c receptor. To be noted: standard radioligand binding; human recombinant receptors and native rat brain receptors; read-out: affinity for adrenergic α2c receptors (pKi) (converted). On the procedure: (§1) Receptor affinity is determined with standard radioligand binding techniques, using human recombinant receptors and native rat brain receptors. Blockade of dopamine D2 and noradrenergic α2c receptors is tested in cell-lines using luciferase reporter gene assays based on 2nd messenger responses.

A further data set addresses 5HT2A receptors (Homo sapiens, UniProt P28223). Description: radioligand binding, 5HT2A receptor. Conditions: standard radioligand binding; human recombinant receptors and native rat brain receptors; read-out: affinity for 5HT2A receptors (pKi) (converted). The protocol: as §1
A further data set has as its target 5HT6 receptors (Homo sapiens, UniProt P50406). Description: radioligand binding, 5HT6 receptor. Conditions: standard radioligand binding; human recombinant receptors and native rat brain receptors; read-out: affinity for 5HT6 receptors (pKi) (converted). The protocol: as §1
A further data set addresses adrenergic α1 receptors. Description: radioligand binding, adrenergic α1 receptor. To be noted: standard radioligand binding; human recombinant receptors and native rat brain receptors. On the procedure:
as §1

For data set [1] the following is noted: higher than parent drug iloperidone; cited from earlier work.
Data set [2] can be described thus: metabolite formation in humans following administration of iloperidone. In kind it is in vivo, human. The text has this:
P-88-8991 consists of a mixture of two enantiomers which have never been disclosed in the literature.

Sequence of 5HT2A receptors (P28223 whole entry): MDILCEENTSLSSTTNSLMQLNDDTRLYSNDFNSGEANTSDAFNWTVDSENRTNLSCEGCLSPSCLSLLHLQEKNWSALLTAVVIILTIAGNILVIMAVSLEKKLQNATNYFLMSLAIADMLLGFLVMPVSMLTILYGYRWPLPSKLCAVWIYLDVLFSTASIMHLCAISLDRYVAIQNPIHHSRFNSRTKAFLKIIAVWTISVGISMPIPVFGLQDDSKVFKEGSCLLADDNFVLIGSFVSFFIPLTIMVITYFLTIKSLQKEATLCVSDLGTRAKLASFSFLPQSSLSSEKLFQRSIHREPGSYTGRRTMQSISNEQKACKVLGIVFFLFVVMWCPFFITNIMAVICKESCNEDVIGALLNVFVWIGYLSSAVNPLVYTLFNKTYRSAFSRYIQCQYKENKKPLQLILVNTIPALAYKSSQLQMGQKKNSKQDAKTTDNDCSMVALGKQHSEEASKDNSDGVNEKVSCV
Sequence of 5HT6 receptors (P50406 whole entry): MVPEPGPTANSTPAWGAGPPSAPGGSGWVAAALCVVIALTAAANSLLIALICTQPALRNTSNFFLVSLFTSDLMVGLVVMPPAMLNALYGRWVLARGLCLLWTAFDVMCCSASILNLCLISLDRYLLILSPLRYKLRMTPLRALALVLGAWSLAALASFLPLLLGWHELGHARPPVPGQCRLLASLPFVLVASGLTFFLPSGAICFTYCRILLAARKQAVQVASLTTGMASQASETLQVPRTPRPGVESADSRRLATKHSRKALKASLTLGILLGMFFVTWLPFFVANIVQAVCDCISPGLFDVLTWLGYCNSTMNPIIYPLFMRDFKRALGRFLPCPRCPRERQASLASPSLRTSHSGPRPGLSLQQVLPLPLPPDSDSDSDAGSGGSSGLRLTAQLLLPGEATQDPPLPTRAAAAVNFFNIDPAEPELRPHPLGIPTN

For `COc1cc([C@@H](C)O)ccc1OCCCN1CCC(c2noc3cc(F)ccc23)CC1` [formula II, (R)-1-(4-{3-[4-(6-fluoro-benzo[d]isoxazol-3-yl)-piperidin-1-yl]propoxy}-3-methoxy-phenyl}-ethanol], the Ki at adrenergic α2c receptors was 20 nM; on 5HT2A receptors, 1.26 nM; at 5HT6 receptors, 15.8 nM. Besides, on adrenergic α1 receptors, the “affinity for adrenergic α1 receptors (pKi)” value is given as 9.2.
For `COc1cc(C(C)O)ccc1OCCCN1CCC(c2noc3cc(F)ccc23)CC1` (racemic) [P-88-8991], in data set [1], the “plasma levels in human relative to the parent drug” value is listed as “about 1.5 fold”.
In the case of `COc1cc(C(C)=O)ccc1OCCCN1CCC(c2noc3cc(F)ccc23)CC1` [iloperidone, 1-(4-{3-[4-(6-fluoro-benzo[d]isoxazol-3-yl)piperidin-1-yl]propoxy}-3-methoxy-phenyl)-ethanone], the “stereospecific formation of P-88-8991 enantiomer” value in data set [2] is “humans produce only one enantiomer stereospecifically”.
Regarding `COc1cc([C@H](C)O)ccc1OCCCN1CCC(c2noc3cc(F)ccc23)CC1` [formula I, (S)-1-(4-{3-[4-(6-fluoro-benzo[d]isoxazol-3-yl)-piperidin-1-yl]-propoxy}-3-methoxy-phenyl)-ethanol], the Ki at adrenergic α2c receptors was 15.8 nM; on 5HT2A receptors, 1.26 nM; at 5HT6 receptors, 7.94 nM. For the same molecule, the “affinity for adrenergic α1 receptors (pKi)” value on adrenergic α1 receptors turned out to be 8.9.

Values taken from US8314129B2, “Optical isomers of an iloperidone metabolite” (Novartis AG, priority 2004, dated 2012).
